Measured values: the supplement of paper PMC10307832

Columns and labels:
Test in all cases: relative viability (nuclei count vs DMSO), 5 days (fraction); higher = more cells survive
[1] = compound: CCn1c(-c2nonc2N)nc2cnc(Oc3cccc(NC(=O)c4ccc(OCCN5CCOCC5)cc4)c3)cc21 + C[C@@H](Oc1cc(-c2cnn(C3CCNCC3)c2)cnc1N)c1c(Cl)ccc(F)c1Cl [Crizotinib] (partner 1 µM)
Summary of the method: (§1)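 Relative viability was taken as the ratio of nuclei in treated wells to nuclei in vehicle wells. Lung cancer cell lines in 1536-well plates received compounds by pin tool one day after seeding, either one drug alone or a fixed anchor-drug dose plus five library-drug doses (not always all listed) in √10 steps. Nuclei were counted on 4× images after 5 days of treatment, and values are medians of duplicate plates.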

[2] = compound: N=C1NC(=O)/C(=C/c2ccc(O)cc2)S1 [Mirin] + CC(C)C[C@H](NC(=O)[C@H](Cc1ccccc1)NC(=O)c1cnccn1)B(O)O [Bortezomib] (partner 0.002 µM)
Summary of the method: as §1

[3] = compound: CCC1=CN=CN=C1N2CCN(CC2)CC3=NC4=C(N3)C=C(C=C4)C(F)(F)F + N=C(N)NC(=N)NCCc1ccccc1 [Phenformin] (partner 250 µM)
Summary of the method: as §1

[4] = compound: CCC1=CN=CN=C1N2CCN(CC2)CC3=NC4=C(N3)C=C(C=C4)C(F)(F)F + CC(=O)c1c(C)c2cnc(Nc3ccc(N4CCNCC4)cn3)nc2n(C2CCCC2)c1=O [Palbociclib] (partner 0.5 µM)
Summary of the method: as §1

| Cell Line | relative viability ([1]; first compound 0.04 µM) | relative viability ([1]; first compound 0.1265 µM) | relative viability ([1]; first compound 0.4 µM) | relative viability ([1]; first compound 1.265 µM) | relative viability ([1]; first compound 4 µM) | relative viability ([2]; first compound 0.25 µM) | relative viability ([2]; first compound 0.7906 µM) | relative viability ([2]; first compound 2.5 µM) | relative viability ([2]; first compound 7.906 µM) | relative viability ([2]; first compound 25 µM) | relative viability ([3]; first compound 0.04 µM) | relative viability ([3]; first compound 0.1265 µM) | relative viability ([3]; first compound 0.4 µM) | relative viability ([3]; first compound 1.265 µM) | relative viability ([3]; first compound 4 µM) | relative viability ([4]; first compound 0.04 µM) | relative viability ([4]; first compound 0.1265 µM) | relative viability ([4]; first compound 0.4 µM) | relative viability ([4]; first compound 1.265 µM) | relative viability ([4]; first compound 4 µM) |
| --- | --- | --- | --- | --- | --- | --- | --- | --- | --- | --- | --- | --- | --- | --- | --- | --- | --- | --- | --- | --- |
| NCI-H647 | 1.28 | 0.865 | 0.813 | 0.511 | 0.389 | 1.24 | 0.909 | 1.04 | 0.816 | 0.444 | 0.555 | 0.589 | 0.518 | 0.461 | 0.626 | 0.518 | 0.345 | 0.346 | 0.292 | 0.374 |
| NCI-H2126 | 1.05 | 1.05 | 1.04 | 1.07 | 1.02 | 1.12 | 1.11 | 1.12 | 1.07 | 1.2 | 0.524 | 0.533 | 0.521 | 0.515 | 0.581 | 0.365 | 0.333 | 0.376 | 0.354 | 0.369 |
| NCI-H727 | 1.16 | 1.04 | 1.14 | 0.835 | 0.823 | 1.24 | 1.18 | 0.832 | 0.997 | 0.907 | 0.505 | 0.541 | 0.439 |  | 0.671 | 0.688 | 0.644 | 0.526 | 0.576 | 0.661 |
| EMC-BAC-2 | 0.904 | 0.823 | 0.789 | 0.733 | 0.701 | 1.11 | 1.08 | 1.07 | 1.05 | 1.11 | 0.515 | 0.506 | 0.523 |  | 0.557 | 0.483 | 0.532 | 0.533 | 0.463 | 0.554 |
| NCI-H1355 | 1.16 | 1.11 | 1.18 | 1.01 | 1.01 | 1.3 | 1.19 | 1.16 | 1.23 | 1.38 | 0.456 | 0.428 | 0.406 | 0.395 | 0.424 | 0.412 | 0.387 | 0.407 | 0.373 | 0.368 |
| NCI-H2347 | 0.602 | 0.69 | 0.589 | 0.484 | 0.39 | 0.824 | 1.02 | 1.32 | 0.639 | 1.01 | 0.314 | 0.397 | 0.498 | 0.243 | 0.304 | 0.386 | 0.396 | 0.424 | 0.368 | 0.422 |
| NCI-H1651 | 0.871 | 0.98 | 0.822 | 0.667 | 0.907 | 0.912 | 0.959 | 0.931 | 0.854 | 0.916 | 0.369 | 0.321 | 0.308 | 0.332 | 0.375 | 0.558 | 0.562 | 0.513 | 0.463 | 0.532 |
| NCI-H1975 | 0.933 | 0.788 | 0.864 | 0.279 | 0.218 | 0.375 | 0.366 | 0.468 | 0.498 | 0.321 | 0.434 | 0.392 | 0.374 | 0.382 | 0.436 | 0.62 | 0.479 | 0.568 | 0.461 | 0.577 |
| COR-L23 | 0.598 | 0.341 | 0.329 | 0.133 | 0.107 | 1.1 | 1.08 | 1.03 | 1.06 | 0.968 | 0.387 | 0.411 | 0.473 | 0.409 | 0.521 | 0.234 | 0.298 | 0.259 | 0.254 | 0.282 |
| HCC-44 | 0.784 | 1.03 | 0.83 | 0.411 | 0.248 | 0.876 | 0.955 | 0.846 | 0.856 | 1.13 | 0.176 | 0.208 | 0.266 | 0.28 | 0.247 | 0.965 | 0.956 | 0.991 | 0.937 | 0.859 |
| LOU-NH91 | 0.756 | 0.534 | 0.637 | 0.488 | 0.497 | 0.417 |  | 0.47 | 0.455 | 0.503 | 0.605 | 0.692 | 0.685 | 0.669 | 0.714 | 0.523 | 0.565 | 0.541 | 0.542 | 0.558 |
| NCI-H460 | 0.962 | 0.697 | 0.597 | 0.276 | 0.0863 | 1.22 | 1.2 | 1.21 | 1.12 | 1.15 | 0.465 | 0.525 | 0.484 | 0.439 | 0.499 | 0.145 | 0.199 | 0.174 | 0.152 | 0.166 |
| NCI-H650 | 0.838 | 0.758 | 0.432 | 0.388 | 0.339 | 0.915 |  | 0.84 |  | 0.937 | 0.442 | 0.418 | 0.466 | 0.454 | 0.464 | 0.318 | 0.344 | 0.292 | 0.276 | 0.313 |
| NCI-H1915 | 1.09 | 0.899 | 0.868 | 0.93 | 0.86 | 1.03 |  | 1.01 | 0.931 | 0.945 | 0.361 | 0.362 | 0.376 | 0.344 | 0.358 | 0.478 | 0.525 | 0.515 | 0.451 | 0.522 |
| NCI-H1734 | 0.671 | 0.669 | 0.581 | 0.464 | 0.285 | 0.952 | 0.778 | 0.987 | 0.831 | 0.793 | 0.377 | 0.379 | 0.427 | 0.381 | 0.445 | 0.33 | 0.362 | 0.344 | 0.291 | 0.317 |
| NCI-H1993 | 0.991 | 0.864 |  | 0.75 | 0.742 | 1.04 | 1.12 | 1.06 | 1.02 | 0.972 | 0.551 | 0.461 | 0.496 | 0.537 | 0.579 | 0.661 | 0.586 | 0.622 | 0.586 | 0.654 |
